The results in this text go back to patent US20200347136A1, “CONSTRAINED CYCLIC PEPTIDES AS INHIBITORS OF THE CD2:CD58 PROTEIN-PROTEIN INTERACTION FOR TREATMENT OF DISEASES AND AUTOIMMUNE DISORDERS” (Board of Supervisors for the University of Louisiana System, priority 2019, published 2020).

One experiment concerns MCF-7 cells. The conditions noted are these: read-out: IC50 MCF-7 (HER2−); antiproliferative activity. The procedure: (§1) Antiproliferative activity of grafted cyclic peptides. Antiproliferative activity of the designed grafted peptides was evaluated in different HER2-overexpressing cancer cell lines as well as HER2 negative cancer cell lines.
(§2) Table 1. […] Single letter amino acid code was used for peptide sequence. Lower case letters refer to D amino acids and capital letters refer to L amino acids. Chirality of Anapa was indicated with R and S configuration in italics. Antiproliferative activity of peptides in cancer cell lines are given as IC50 in μM. Disulfide bonds between the cysteines are underlined.

For another experiment, the system named is A549 cells. The conditions noted are these: read-out: IC50 A549 (HER2+); antiproliferative activity. The protocol:
as §1, §2

The test system of a further experiment is BT-474 cells. The note with it: for IC50: read-out: IC50 BT-474 (HER2+), antiproliferative activity. The procedure:
as §1, §2

A further experiment deals with Calu-3 cells. The note with it: read-out: IC50 Calu-3 (HER2+); antiproliferative activity. The procedure:
as §1, §2

In experiment [1] the target is T1, CD2:CD58 interaction (Jurkat T cells / OVCAR-3 cells) (Homo sapiens, UniProt P19256).
T1 construct: CD2+ Jurkat T cells and CD58+ OVCAR-3 cells; endogenous in cells; host or cells: OVCAR-3 (CD58) and Jurkat (CD2)
T1 sequence (P19256 29-250): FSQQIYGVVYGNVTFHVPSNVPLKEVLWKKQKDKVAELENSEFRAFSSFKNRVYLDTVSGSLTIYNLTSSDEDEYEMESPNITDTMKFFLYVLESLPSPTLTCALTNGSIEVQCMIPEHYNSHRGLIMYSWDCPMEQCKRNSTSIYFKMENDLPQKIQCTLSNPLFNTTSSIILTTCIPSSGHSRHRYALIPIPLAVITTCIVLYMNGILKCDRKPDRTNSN
Briefly: cell adhesion inhibition, Jurkat / OVCAR-3 cells. In kind it is cell-based.
Description: (§7) The ability of peptides to inhibit the CD2:CD58 protein-protein interaction was studied by evaluating the adhesion interaction between cells using model systems. […] The model systems we used included Jurkat and ovarian cancer (OVACR-3) cells and Jurkat and human fibroblast-like synoviocyte-rheumatoid arthritis (HFLS-RA) cells. Since OVCAR-3 cells and HFLS-RA cells express CD58, adhesion interactions between CD2 and CD58 can be studied using these model systems. Peptides were incubated with adherent cells that expressed CD58, and Jurkat cells were added to evaluate the adhesion. […] A broad range of concentrations (0.0005 to 200 μM) was used in the first screen and based on the inhibitory activity of the peptides in that concentration range, data points for a dose-response study were chosen. The concentration-response curves for the various peptides were obtained in the range of 0.0005 to 10 μM.
(§8) Cell adhesion was also evaluated in a well-established E-rosetting assay. […] To evaluate the cell adhesion inhibitory activity of peptides from cells associated with autoimmune disease, we used HFLS-RA cells derived from RA patients.

Experiment [2] concerns the target T2, CD2:CD58 interaction (Jurkat T cells / HFLS-RA cells) (Homo sapiens, UniProt P19256).
T2 construct: we used HFLS-RA cells derived from RA patients; endogenous in cells; host or cells: HFLS-RA (CD58) and Jurkat (CD2)
T2 sequence (P19256 29-250): T1 sequence (P19256 29-250)
Briefly: cell adhesion inhibition, Jurkat / HFLS-RA cells. Format: cell-based.
Description: as §7, §8

Another experiment addresses T3, CD2:CD58 interaction (Homo sapiens, UniProt P19256).
T3 construct: Peptides were incubated with adherent cells that expressed CD58; endogenous in cells; host or cells: Jurkat T cells with OVCAR-3 or HFLS-RA cells
T3 sequence (P19256 29-250): T1 sequence (P19256 29-250)
Briefly: cell adhesion inhibition between T cells (CD2) and epithelial cells (CD58), model systems. Format: cell-based.

The test system of experiment [3] is CD2:CD58. Briefly: Cell adhesion inhibition IC50 (µM) | T cell-HFLS-RA. The protocol: (§3) Table printed on a drawing sheet, Fig. 5
Head of the field: Cell adhesion inhibition IC50 (µM) | T cell-HFLS-RA
(§4) Table of stable peptides designed based on sunflower trypsin inhibitor (SFTI) and their cell adhesion inhibition activities in a model system. OVCAR-3 and HFLS-RA cells express CD58. Jurkat T cells express CD2 protein. Inhibition of adhesion between Jurkat and OVCAR-3/HFLS-RA cells was evaluated. Cell adhesion inhibition is represented as IC50 value
(§5) First copying reader's note: In the SFTI sequences the stretch from the first C to the second C is underlined on the sheet; the ± error stands inside the IC50 cells.
(§6) Where the first naming reader finds the target: description_of_the_figure: OVCAR-3 and HFLS-RA cells express CD58. Jurkat T cells express CD2 protein. Inhibition of adhesion between Jurkat and OVCAR-3/HFLS-RA cells was evaluated.

Experiment [4] deals with CD2:CD58. Briefly: Cell adhesion inhibition IC50 (µM) | T cell-OVCAR-3. The procedure: as §3
Head of the field: Cell adhesion inhibition IC50 (µM) | T cell-OVCAR-3
as §4, §5, §6

The test system of a further experiment is Calu-3 xenograft tumors. Briefly: Calu-3 xenograft model of lung cancer in nude mice. The note with it: Calu-3 xenograft; SFTI-G5 8 mg/kg intratumoral thrice a week; antibodies 12 then 6 mg/kg once a week. In kind it is in vivo. The protocol: 5×10^6 Calu-3 cells suspended in serum-free medium were subcutaneously inoculated in left flank region of mice to induce lung cancer (Foxn1-nude). Peptide (8 mg/kg) was administered via intratumoral injection three times a week after 10 days, Pertuzumab was injected with a loading dose of 12 mg/kg and then 6 mg/kg as maintenance dose intraperitonially once a week, Trastuzumab and pertuzumab combination was injected at a loading dose of 12 mg/kg and then 6 mg/kg as maintenance dose once a week. […] For comparison, pertuzumab (up triangle, blue) and trastuzumab and pertuzumab combination (down triangle, red) also shown (with standard errors for n=6). […] C) PPI inhibition assessed by PLA on tumor tissue sample. […] Tumor sections were homogenized, and protein was extracted and subjected to Western blot. […] (** p<0.01). Mean±SEM.
HER2 dimerization inhibitors such as pertuzumab and trastuzumab and pertuzumab combinations were also administered as control groups (FIG. 11A). […] During the course of the experiment, the tumor size in the control xenograft group without any treatment continued to increase, reaching a diameter of ˜9 mm in 28 days (FIG. 11B).
To evaluate the phosphorylation of HER2 protein, Western blot analysis was performed on frozen tumor samples.

Numbered stars: 1 amine (or outer) side, 2 acyl side, 3 side chain; on linkers, the order of the positions; unused ones are H or OH. Bridge positions count the residues as written; N and C are the ends. Square brackets hold non-standard residues; d marks the D form. Peptide text beside a SMILES is read from it. βAla(3R-(1-naphthyl)) = O=C(C[C@@H](N[*:1])c1cccc2ccccc12)[*:2]; βAla(3S-(1-naphthyl)) = O=C(C[C@H](N[*:1])c1cccc2ccccc12)[*:2]; X1 = O=C(CCc1cccc2c1oc1c(CCN[*:1])cccc12)[*:2]

A word on the IC50: it is the concentration that inhibits the measured activity by half. Turning to `N=C(N)NCCC[C@@H]1NC(=O)[C@H]2CCCN2C(=O)[C@@H]2CCCN2C(=O)[C@H](CCCNC(=N)N)NC(=O)C[C@H](c2cccc3ccccc23)NC(=O)[C@H](Cc2ccccc2)NC(=O)[C@H](CC(=O)O)NC(=O)[C@H](CC(=O)O)NC(=O)[C@H](Cc2ccccc2)NC(=O)C[C@H](c2cccc3ccccc23)NC1=O` [Compound 18, Cyclo(PpR(R-X)FDDF(R-X)R), reference compound] (cyclo(P[dP]R[βAla(3R-(1-naphthyl))]FDDF[βAla(3R-(1-naphthyl))]R)), the concentration for half-maximal inhibition (IC50) in the experiment with MCF-7 cells is greater than 50 µM.

Regarding `CC[C@H](C)[C@@H]1NC(=O)[C@H](C)NC(=O)C[C@@H](c2cccc3ccccc23)NC(=O)[C@@H]2CSSC[C@H](NC(=O)C[C@@H](c3cccc4ccccc34)NC(=O)[C@H](C)NC(=O)[C@@H]3CCCN3C(=O)[C@@H]3CCCN3C1=O)C(=O)N[C@@H](C)C(=O)N1CCC[C@H]1C(=O)N[C@@H](CC(=O)O)C(=O)N[C@@H](C)C(=O)N[C@@H](Cc1ccccc1)C(=O)N2` [Control-G, Cyclo(C(S-X)AIPPA(S-X)CAPDAF), reference compound] (cyclo(AFC[βAla(3S-(1-naphthyl))]AIPPA[βAla(3S-(1-naphthyl))]CAPD); disulfide 3-11), the IC50 in the experiment with A549 cells, in the experiment with BT-474 cells, with Calu-3 cells and in the experiment on MCF-7 cells was greater than 50 µM throughout.

Turning to `C[C@@H]1NC(=O)[C@@H]2CSSC[C@H](NC(=O)[C@H](CC(=O)O)NC(=O)[C@H](CC(=O)O)NC(=O)CNC(=O)[C@H](CC(=O)O)NC(=O)[C@H](Cc3ccc(O)cc3)NC1=O)C(=O)N[C@@H](CCCCN)C(=O)N[C@@H](CO)C(=O)N[C@@H](C)C(=O)NCCc1cccc3c1Oc1c(cccc1-3)CCC(=O)N[C@@H](CO)C(=O)N2` [SFTI-DBF] (cyclo(AYDGDDCKSA[X1]SC); disulfide 7-13), the half-inhibitory concentration (IC50) in experiment [1] worked out at 0.00061 µM; in [2], 0.003 µM.

On to `CC[C@H](C)[C@@H]1NC(=O)[C@H](CO)NC(=O)[C@H](CC(=O)O)NC(=O)[C@H](Cc2ccccc2)NC(=O)[C@@H]2CSSC[C@H](NC(=O)[C@H](Cc3ccccc3)NC(=O)[C@H](CC(=O)O)NC1=O)C(=O)N[C@H](c1cccc3ccccc13)CC(=O)N[C@@H](CCCNC(=N)N)C(=O)N[C@@H](CC(=O)O)C(=O)N[C@@H](CCCNC(=N)N)C(=O)N[C@H](c1cccc3ccccc13)CC(=O)N2` [SFTI-G1, Cyclo(C(S-X)RDR(S-X)CFDSIDF)] (cyclo(C[βAla(3S-(1-naphthyl))]RDR[βAla(3S-(1-naphthyl))]CFDSIDF); disulfide 1-7), for which the IC50 in the experiment on BT-474 cells was 4.16 ± 0.179 µM; in the experiment with MCF-7 cells, greater than 50 µM.

Take `N=C(N)NCCC[C@@H]1NC(=O)[C@H]2CCCN2C(=O)[C@@H]2CCCN2C(=O)[C@H](CCCNC(=N)N)NC(=O)C[C@H](c2cccc3ccccc23)NC(=O)[C@@H]2CSSC[C@H](NC(=O)C[C@H](c3cccc4ccccc34)NC1=O)C(=O)N[C@@H](Cc1ccccc1)C(=O)N[C@@H](Cc1ccccc1)C(=O)N2` [SFTI-G2, Cyclo(C(R-X)RPpR(R-X)CFF)] (cyclo(C[βAla(3R-(1-naphthyl))]RP[dP]R[βAla(3R-(1-naphthyl))]CFF); disulfide 1-8): the concentration for half-maximal inhibition (IC50) was 5.23 ± 1.38 µM in the experiment on BT-474 cells and greater than 50 µM in the experiment with MCF-7 cells.

Take `N=C(N)NCCC[C@@H]1NC(=O)[C@@H]2CCCN2C(=O)[C@@H]2CCCN2C(=O)[C@H](CCCNC(=N)N)NC(=O)C[C@H](c2cccc3ccccc23)NC(=O)[C@@H]2CSSC[C@H](NC(=O)C[C@H](c3cccc4ccccc34)NC1=O)C(=O)N[C@@H](Cc1ccccc1)C(=O)N2` [SFTI-G3, Cyclo(C(R-X)RPPR(R-X)CF)] (cyclo(C[βAla(3R-(1-naphthyl))]RPPR[βAla(3R-(1-naphthyl))]CF); disulfide 1-8): the IC50 with BT-474 cells is 3.65 ± 0.41 µM; in the experiment on MCF-7 cells, greater than 50 µM.

With `CC[C@H](C)[C@@H]1NC(=O)[C@H](CO)NC(=O)[C@H](CC(=O)O)NC(=O)[C@H](Cc2ccccc2)NC(=O)[C@@H]2CSSC[C@H](NC(=O)[C@H](Cc3ccccc3)NC(=O)[C@H](CC(=O)O)NC(=O)[C@@H]3CCCN3C(=O)[C@@H]3CCCN3C1=O)C(=O)N[C@H](c1cccc3ccccc13)CC(=O)N[C@@H](CCCNC(=N)N)C(=O)N1CCC[C@H]1C(=O)NCC(=O)N[C@@H](CCCNC(=N)N)C(=O)N[C@H](c1cccc3ccccc13)CC(=O)N2` [SFTI-G4] (cyclo(C[βAla(3S-(1-naphthyl))]RPGR[βAla(3S-(1-naphthyl))]CFDSIPPDF); disulfide 1-8), the results for the IC50 with BT-474 cells and in the experiment on MCF-7 cells were 17.2 ± 1.03 µM and greater than 30 µM, respectively.

As to `CC[C@H](C)[C@@H]1NC(=O)[C@H](CCCNC(=N)N)NC(=O)C[C@H](c2cccc3ccccc23)NC(=O)[C@@H]2CSSC[C@H](NC(=O)C[C@H](c3cccc4ccccc34)NC(=O)[C@H](CCCNC(=N)N)NC(=O)[C@@H]3CCCN3C(=O)[C@@H]3CCCN3C1=O)C(=O)N[C@@H](Cc1ccccc1)C(=O)N1CCC[C@H]1C(=O)N[C@@H](CC(=O)O)C(=O)N[C@@H](CC(=O)O)C(=O)N[C@@H](Cc1ccccc1)C(=O)N2` [SFTI-G6, Cyclo(C(R-X)RIPPR(R-X)CFPDDF)], the “change of antiproliferative activity on altering Anapa chirality (S to R)” value in the experiment on BT-474 cells (SFTI-G6 versus SFTI-G5) is on record as “tenfold decrease”. Besides, the IC50 in the experiment on BT-474 cells is 2.94 ± 1.06 µM; in the experiment on MCF-7 cells, greater than 50 µM.

On to `C[C@@H]1NC(=O)[C@@H]2CSSC[C@H](NC(=O)[C@H](CC(=O)O)NC(=O)[C@H](CC(=O)O)NC(=O)CNC(=O)[C@H](CC(=O)O)NC(=O)[C@H](Cc3ccc(O)cc3)NC1=O)C(=O)N[C@@H](CCCCN)C(=O)N[C@@H](CO)C(=O)N[C@@H](C)C(=O)N1CCC[C@H]1C(=O)N1CCC[C@H]1C(=O)N[C@@H](CO)C(=O)N2` [SFTI-a1] (cyclo(APPSCAYDGDDCKS); disulfide 5-12), for which the figures for the IC50 at CD2:CD58 interaction and with CD2:CD58 [3] were 0.022 µM and 0.0388 ± 0.0102 µM, respectively.

Turning to `C[C@@H]1NC(=O)[C@H](CCCCN)NC(=O)[C@@H]2CSSC[C@H](NC(=O)[C@H](CO)NC(=O)[C@@H]3CCCN3C(=O)[C@@H]3CCCN3C(=O)[C@H](C)NC(=O)[C@H](CO)NC1=O)C(=O)N[C@@H](Cc1ccc(O)cc1)C(=O)N[C@@H](CC(=O)O)C(=O)NCC(=O)N[C@@H](CC(=O)O)C(=O)N[C@@H](CC(=O)O)C(=O)N2` [SFTI-a] (cyclo(APPSCYDGDDCKAS); disulfide 5-11), half-maximal inhibition in the experiment on CD2:CD58 [4] (IC50) was put at 0.043 ± 0.025 µM.

On to “Cyclo(CTKSIPPICFPDGR) (cyclic) [SFTI-wt (control)]”, for which the half-inhibitory concentration (IC50) with CD2:CD58 [4] and with CD2:CD58 [3] was greater than 50 µM each time.

For “pertuzumab: antibody known to bind HER2 ECD domain II and inhibit dimerization of EGFRs [reference compound]”, the tumor growth result with Calu-3 xenograft tumors is given as “significantly reduced tumor growth progression”.
